Here are results for 19 molecules from US9394268B2, “(E)-1-(5-methoxy-2,2-dimethyl-2H-chromen-8-yl)-3-(4-methoxyphenyl)prop-2-en-1-one and analogs thereof, as well as preparation method and use thereof” (Sichuan University, priority 2012, dated 2016).

Holding throughout (assay type): cell-based
In one assay the test system is K562. Nature of the assay: Cell proliferative assay (MTT), K562. The note with it: Homo sapiens, 72 h incubation, read-out: IC50s K562. As for the experimental part:
(§1) The synthesized compounds were evaluated for their cytotoxin activity against suspended tumor cells. These cells were seeded on 96-well plates and incubated for 24 h. Selected compounds were added at various doses and incubated for 72 h, MTT was then added, and the absorbance was measured at a wavelength of 590 nm. IC50 values are expressed as the mean±SEM from the dose-response curves of at least three independent experiments.

A further assay concerns LO2. In words: Cell proliferative assay (MTT), LO2. Conditions: Homo sapiens, L02, 72 h incubation, read-out: IC50s LO2. As for the experimental part: as §1
In the next assay the test system is A549. Nature of the assay: Cell proliferative assay (MTT), A549. Conditions: Homo sapiens, 72 h incubation, read-out: IC50s A549. As for the experimental part:
as §1

The next assay concerns HepG2. Nature of the assay: Cell proliferative assay (MTT), HepG2. Conditions: Homo sapiens, 72 h incubation, read-out: IC50s HepG2. How it is done:
as §1

Another assay deals with SMMC-7221. In words: Cell proliferative assay (MTT), SMMC-7221. Conditions: 72 h incubation, read-out: IC50s SMMC-7221. As for the experimental part: as §1
The subject of another assay is A375. Nature of the assay: Cell proliferative assay (MTT), A375. The note with it: Homo sapiens, A-375, 72 h incubation, read-out: IC50s A375. How it is done:
as §1

Each structure is given as a SMILES string. Bounds are passed on as bounds.

In the case of `COc1ccc(/C=C/C(=O)c2ccc(OC)c3c2OC(C)(C)C=C3)cc1OC(=O)CCCc1ccc(N(CCCl)CCCl)cc1` [SKLBC-65, (E)-2-methoxy-5-(3-(5-methoxy-2,2-dimethyl-2H-chromen-8-yl)-3-oxoprop-1-en-1-yl)phenyl 4-(4-(bis(2-chloroethyl)amino)phenyl)butanoate], the IC50 was 600 nM in the assay with K562; above 10 µM with LO2; 550 nM in the assay on A549; 2100 nM in the assay on HepG2; 980 nM in the assay with SMMC-7221; 3800 nM with A375.

Turning to `COc1ccc(/C=C/C(=O)c2ccc(OC)c3c2OC(C)(C)C=C3)cc1OC(=O)Cc1ccc(Cl)c(Cl)c1` [SKLBC-67, (E)-2-methoxy-5-(3-(5-methoxy-2,2-dimethyl-2H-chromen-8-yl)-3-oxoprop-1-en-1-yl)phenyl 2-(3,4-dichlorophenyl)acetate], the IC50 in the assay with K562 was determined as 430 nM; with LO2 it was 10 µM; in the assay with A549, 860 nM; in the assay with HepG2 it was 195 nM; with SMMC-7221, 1900 nM; in the assay on A375, 105 nM.

Take `COc1ccc(/C=C/C(=O)c2ccc(OC)c3c2OC(C)(C)C=C3)cc1OC(=O)c1ccco1` [SKLBC-68, (E)-2-methoxy-5-(3-(5-methoxy-2,2-dimethyl-2H-chromen-8-yl)-3-oxoprop-1-en-1-yl)phenyl furan-2-carboxylate]: the IC50 was 245 nM in the assay with K562; above 10 µM with LO2; 800 nM in the assay with A549; 68 nM with HepG2; 1620 nM in the assay with SMMC-7221; 680 nM in the assay on A375.

With `COc1ccc(/C=C/C(=O)c2ccc(OC)c3c2OC(C)(C)C=C3)cc1OS(=O)(=O)c1ccc(C)cc1` [SKLBC-69, (E)-2-methoxy-5-(3-(5-methoxy-2,2-dimethyl-2H-chromen-8-yl)-3-oxoprop-1-en-1-yl)phenyl 4-methylbenzenesulfonate], the IC50 is 7850 nM with K562; above 10 µM in the assay on LO2; 8600 nM with A549; 3600 nM in the assay with HepG2; 9200 nM in the assay with SMMC-7221; 2400 nM in the assay with A375.

With `COc1ccc(/C=C/C(=O)c2ccc(OC)c3c2OC(C)(C)C=C3)cc1OS(=O)(=O)Cc1ccccc1` [SKLBC-70, (E)-2-methoxy-5-(3-(5-methoxy-2,2-dimethyl-2H-chromen-8-yl)-3-oxoprop-1-en-1-yl)phenyl phenylmethanesulfonate], the IC50 was above 10000 nM in the assay with K562; above 10 µM in the assay on LO2; above 10000 nM with A549; above 10000 nM in the assay on HepG2; above 10000 nM in the assay on SMMC-7221; above 10000 nM in the assay with A375.

As to `COc1ccc(/C=C/C(=O)c2ccc(OC)c3c2OC(C)(C)C=C3)cc1OCC=C(C)C` [SKLBC-71, (E)-1-(5-methoxy-2,2-dimethyl-2H-chromen-8-yl)-3-(4-methoxy-3-((3-methylbut-2-en-1-yl)oxy)phenyl)prop-2-en-1-one], the IC50 in the assay on K562 was 620 nM; with LO2 it was above 10 µM; in the assay on A549, 1200 nM; with HepG2 it was 580 nM; with SMMC-7221 it was 870 nM; in the assay on A375, 2200 nM.

Take `C=CCOc1cc(/C=C/C(=O)c2ccc(OC)c3c2OC(C)(C)C=C3)ccc1OC` [SKLBC-72, (E)-3-(3-(allyloxy)-4-methoxyphenyl)-1-(5-methoxy-2,2-dimethyl-2H-chromen-8-yl)prop-2-en-1-one]: the IC50 with K562 was above 10000 nM; in the assay with LO2 it was above 20 µM; with A549, above 10000 nM; with HepG2 it was above 10000 nM; in the assay on SMMC-7221, above 10000 nM; in the assay on A375, above 10000 nM.

Turning to `C#CCOc1cc(/C=C/C(=O)c2ccc(OC)c3c2OC(C)(C)C=C3)ccc1OC` [SKLBC-73, (E)-1-(5-methoxy-2,2-dimethyl-2H-chromen-8-yl)-3-(4-methoxy-3-(prop-2-yn-1-yloxy)phenyl)prop-2-en-1-one], the IC50 is above 10000 nM in the assay on K562; above 20 µM in the assay with LO2; above 10000 nM in the assay with A549; above 10000 nM with HepG2; above 10000 nM in the assay with SMMC-7221; above 10000 nM with A375.

For the molecule `COc1ccc(/C=C/C(=O)c2ccc(OC)c3c2OC(C)(C)C=C3)cc1OC(=O)CCl` [SKLBC-74, (E)-2-methoxy-5-(3-(5-methoxy-2,2-dimethyl-2H-chromen-8-yl)-3-oxoprop-1-en-1-yl)phenyl 2-chloroacetate], the IC50 in the assay with K562 was 202 nM; in the assay with LO2, above 10 µM; in the assay with A549 it was 226 nM; in the assay on HepG2 it was 90 nM; in the assay on SMMC-7221 it was 2740 nM; in the assay on A375 it was 245 nM.

As for `C=CC(=O)Oc1cc(/C=C/C(=O)c2ccc(OC)c3c2OC(C)(C)C=C3)ccc1OC` [SKLBC-75, (E)-2-methoxy-5-(3-(5-methoxy-2,2-dimethyl-2H-chromen-8-yl)-3-oxoprop-1-en-1-yl)phenyl acrylate], the IC50 in the assay on K562 was 295 nM; with LO2, above 10 µM; in the assay with A549 it was 490 nM; in the assay with HepG2, 60 nM; with SMMC-7221, 1160 nM; with A375, 190 nM.

Take `COc1ccc(/C=C/C(=O)c2ccc(OC)c3c2OC(C)(C)C=C3)cc1OS(C)(=O)=O` [SKLBC-77, (E)-2-methoxy-5-(3-(5-methoxy-2,2-dimethyl-2H-chromen-8-yl)-3-oxoprop-1-en-1-yl)phenyl methanesulfonate]: the IC50 in the assay on K562 was 9240 nM; in the assay on LO2 it was above 10 µM; in the assay on A549, above 10000 nM; with HepG2, 9000 nM; with SMMC-7221, above 10000 nM; in the assay on A375, above 10000 nM.

`COc1ccc(/C=C/C(=O)c2ccc(OC)c3c2OC(C)(C)C=C3)cc1OC(=O)C12CC3CC(CC(C3)C1)C2` [SKLBC-78]: the IC50 in the assay on K562 was 2830 nM; in the assay on LO2 it was 5.58 µM; with A549 it was 6400 nM; in the assay with HepG2, 2520 nM; in the assay with SMMC-7221 it was above 10000 nM; in the assay on A375, 1060 nM.

`CCCCC(=O)Oc1cc(/C=C/C(=O)c2ccc(OC)c3c2OC(C)(C)C=C3)ccc1OC` [SKLBC-79, (E)-2-methoxy-5-(3-(5-methoxy-2,2-dimethyl-2H-chromen-8-yl)-3-oxoprop-1-en-1-yl)phenyl pentanoate]: the IC50 in the assay with K562 was 240 nM; in the assay with LO2, above 10 µM; with A549, 1180 nM; in the assay on HepG2 it was 90 nM; with SMMC-7221, 1030 nM; in the assay with A375, 378 nM.

Take `COc1ccc(/C=C/C(=O)c2ccc(OC)c3c2OC(C)(C)C=C3)cc1OC(=O)C1CC1` [SKLBC-80, (E)-2-methoxy-5-(3-(5-methoxy-2,2-dimethyl-2H-chromen-8-yl)-3-oxoprop-1-en-1-yl)phenyl cyclopropanecarboxylate]: the IC50 in the assay with K562 is 410 nM; in the assay with LO2, above 10 µM; in the assay with A549, 1320 nM; in the assay on HepG2 it was 118 nM; with SMMC-7221, 1440 nM; with A375, 382 nM.

`COc1ccc(/C=C/C(=O)c2ccc(OC)c3c2OC(C)(C)C=C3)cc1OC(=O)C(C)C` [SKLBC-81, (E)-2-methoxy-5-(3-(5-methoxy-2,2-dimethyl-2H-chromen-8-yl)-3-oxoprop-1-en-1-yl)phenyl isobutyrate]: the IC50 with K562 is 570 nM; in the assay with LO2, above 10 µM; in the assay on A549, 980 nM; in the assay on HepG2, 150 nM; in the assay on SMMC-7221 it was 2630 nM; with A375 it was 505 nM.

Turning to `COc1ccc(/C=C/C(=O)c2ccc(OC)c3c2OC(C)(C)C=C3)cc1[N+](=O)[O-]` [SKLBC-82, (E)-1-(5-methoxy-2,2-dimethyl-2H-chromen-8-yl)-3-(4-methoxy-3-nitrophenyl)prop-2-en-1-one], the IC50 in the assay with K562 is above 10000 nM; with LO2, above 20 µM; in the assay with A549, above 10000 nM; in the assay with HepG2, above 10000 nM; in the assay with SMMC-7221 it was above 10000 nM; in the assay on A375, above 10000 nM.

In the case of `COc1ccc(/C=C/C(=O)c2ccc(OC)c3c2OC(C)(C)C=C3)cc1NO` [SKLBC-84, (E)-3-(3-(hydroxyamino)-4-methoxyphenyl)-1-(5-methoxy-2,2-dimethyl-2H-chromen-8-yl)prop-2-en-1-one], the IC50 was above 10000 nM in the assay on K562; above 20 µM in the assay on LO2; above 10000 nM in the assay with A549; above 10000 nM in the assay on HepG2; above 10000 nM in the assay with SMMC-7221; above 10000 nM in the assay on A375.

As to `CNc1cc(/C=C/C(=O)c2ccc(OC)c3c2OC(C)(C)C=C3)ccc1OC` [SKLBC-85, (E)-1-(5-methoxy-2,2-dimethyl-2H-chromen-8-yl)-3-(4-methoxy-3-(methylamino)phenyl)prop-2-en-1-one], the IC50 in the assay with K562 was above 10000 nM; with LO2, above 20 µM; with A549, above 10000 nM; in the assay with HepG2 it was above 10000 nM; in the assay on SMMC-7221, above 10000 nM; with A375, above 10000 nM.

Take `CCN(CC)c1cc(/C=C/C(=O)c2ccc(OC)c3c2OC(C)(C)C=C3)ccc1OC` [SKLBC-86, (E)-3-(3-(diethylamino)-4-methoxyphenyl)-1-(5-methoxy-2,2-dimethyl-2H-chromen-8-yl)prop-2-en-1-one]: the IC50 was above 10000 nM with K562; above 20 µM in the assay on LO2; above 10000 nM in the assay with A549; above 10000 nM with HepG2; above 10000 nM in the assay with SMMC-7221; above 10000 nM in the assay with A375.
